{"source": "patent US20050112555A1", "about": "“Cytidine deaminase activators, deoxycytidine deaminase activators, Vif antagonists, and methods of screening for molecules thereof” (priority 2003, published 2005)", "system": "intracellular CEM15", "assay": "Western blot of CEM15 abundance after co-expression of CEM15 and Vif in 293T cells", "type": "cell-based, human", "settings": "within 36-48 h post-transfection", "source_text": "CEM15 abundance can be quantified by western blotting as described above. Small molecules that bind to any of the aforementioned peptides can be evaluated for their ability to protect or restore CEM15 abundance using the aforementioned western blotting systems of whole cell extracts of cells that have been transfected with CEM15 and Vif wherein these proteins are co-expressed in 293T cells (conditions that result in CEM15 destruction) and evaluated (by western blotting of cell extracts) for the ability of VDA peptides of varying size and sequence to restore CEM15 abundance. Co-expression of CEM15 and Vif by transfection in 293T cells results ˜99% ablation of intracellular CEM15 within 36-48 h post-transfection. […] All peptides are tested according to this schedule. Expression of CEM15 and Vif are driven from the CMV promoter of pcDNA3 plasmids."}
{"substance": "Vif: HIV-1 viral infectivity factor, SEQ ID NO: 7; induces degradation of CEM15", "values": [{"measurement": "ablation of intracellular CEM15", "value": "~99", "unit": "%"}]}
